PubChem BioAssay AID1053177 (The Scripps Research Institute Molecular Screening Center, 2014)
The source made the active and inactive calls.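 How the source made its calls: active means EC50 of 10 µM or lower; inactive means EC50 above 10 µM.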

Each compound was assayed against Trace amine-associated receptor 1 (Homo sapiens) (UniProt Q96RJ0) (assay: TAAR1 agonists raising cellular cAMP, late-stage follow-up, cell-based, fluorescence, human, MDRUN002 (AID 1053177)). Conditions: CHO TAAR1-HGA16 cells, cAMP TR-FRET, agonist.
Trace amine-associated receptor 1 (Homo sapiens), sequence (Q96RJ0 whole entry, looked up, the tested form may be a part): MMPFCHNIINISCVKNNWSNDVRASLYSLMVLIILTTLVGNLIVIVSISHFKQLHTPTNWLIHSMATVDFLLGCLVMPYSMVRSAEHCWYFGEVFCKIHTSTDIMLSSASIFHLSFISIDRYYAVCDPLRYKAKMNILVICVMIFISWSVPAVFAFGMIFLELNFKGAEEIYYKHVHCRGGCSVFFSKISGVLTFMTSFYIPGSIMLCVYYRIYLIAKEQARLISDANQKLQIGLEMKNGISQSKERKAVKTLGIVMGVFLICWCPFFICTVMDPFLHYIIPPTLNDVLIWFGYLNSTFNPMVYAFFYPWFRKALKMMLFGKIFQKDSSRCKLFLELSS

SMILES | EC50
N#Cc1c(C(F)(F)F)cc(-c2ccc(Cl)cc2)nc1SCC(=O)N1CCCCCC1 | > 37400 nM (inactive)
N#Cc1c(C(F)(F)F)cc(-c2ccc(Cl)cc2)nc1SCC(=O)N1CCCC1 | > 37400 nM (inactive)
N#Cc1c(C(F)(F)F)cc(-c2ccc(Cl)cc2)nc1SCC(=O)Nc1ncccn1 | > 37400 nM (inactive)
CC(CN1CCCC1Cc1ccccc1)C(=O)c1ccc2c(c1)OCCO2 (configuration not stated) | 438 nM

Results, then the compound that gave them:

EC50 | SMILES
97.3 nM | O=C(CCN1CCC(c2ccccc2)C1)c1ccccc1 (configuration not stated)
131 nM | COc1cc(C(=O)CCN2CCC(c3ccccc3)C2)cc(OC)c1OC (configuration not stated)
335 nM | Cc1ccc(C(=O)CCN2CCC(c3ccccc3)C2)cc1 (configuration not stated)
